In PubChem BioAssay (NCI):
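How tested: cells in 96-well plates exposed to compound for 48 hours at five concentrations. GI50 = concentration required for 50% inhibition of growth. TGI denotes the concentration required for complete inhibition of growth.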

How the values were obtained:
Experiment in all cases: NCI tumour cell line growth inhibition, 48 h
SW-620 colon = system: SW-620 colon
PC-3 prostate = system: PC-3 prostate
CAKI-1 renal = system: CAKI-1 renal
NCI-H226 lung = system: NCI-H226 lung
HCT-15 colon = system: HCT-15 colon
HOP-62 NSCLC = system: HOP-62 NSCLC
M14 melanoma = system: M14 melanoma
A498 renal = system: A498 renal
ACHN renal = system: ACHN renal
SN12C renal = system: SN12C renal
SK-MEL-2 melanoma = system: SK-MEL-2 melanoma
COLO 205 colon = system: COLO 205 colon
NCI-H23 lung = system: NCI-H23 lung
A549 NSCLC = system: A549 NSCLC
HCC-2998 colon = system: HCC-2998 colon
BT-549 breast = system: BT-549 breast
UO-31 renal = system: UO-31 renal
LOX IMVI melanoma = system: LOX IMVI melanoma
U251 CNS = system: U251 CNS
MDA-MB-435 = system: MDA-MB-435
HOP-92 NSCLC = system: HOP-92 NSCLC
HS 578T breast = system: HS 578T breast
OVCAR-5 ovarian = system: OVCAR-5 ovarian
SNB-19 CNS = system: SNB-19 CNS
MDA-MB-231 breast = system: MDA-MB-231 breast
HT29 colon = system: HT29 colon
HCT-116 colon = system: HCT-116 colon
SK-OV-3 ovarian = system: SK-OV-3 ovarian
SF-268 CNS = system: SF-268 CNS
NCI-H522 lung = system: NCI-H522 lung
UACC-62 melanoma = system: UACC-62 melanoma
OVCAR-4 ovarian = system: OVCAR-4 ovarian
OVCAR-3 ovarian = system: OVCAR-3 ovarian
SNB-75 CNS = system: SNB-75 CNS
MCF7 breast = system: MCF7 breast
RXF 393 renal = system: RXF 393 renal
NCI-H460 lung = system: NCI-H460 lung
T-47D breast = system: T-47D breast
UACC-257 melanoma = system: UACC-257 melanoma
IGROV1 ovarian = system: IGROV1 ovarian
DU-145 prostate = system: DU-145 prostate
CCRF-CEM leukemia = system: CCRF-CEM leukemia
HL-60(TB) leukemia = system: HL-60(TB) leukemia
SF-295 CNS = system: SF-295 CNS
MALME-3M melanoma = system: MALME-3M melanoma
SK-MEL-5 melanoma = system: SK-MEL-5 melanoma
SK-MEL-28 melanoma = system: SK-MEL-28 melanoma
NCI/ADR-RES ovarian = system: NCI/ADR-RES ovarian
KM12 colon = system: KM12 colon
SR leukemia = system: SR leukemia
RPMI-8226 leukemia = system: RPMI-8226 leukemia
K-562 leukemia = system: K-562 leukemia
OVCAR-8 ovarian = system: OVCAR-8 ovarian
TK-10 renal = system: TK-10 renal
786-0 renal = system: 786-0 renal
MOLT-4 leukemia = system: MOLT-4 leukemia
SF-539 CNS = system: SF-539 CNS

With O=C1NC(=O)C(c2cnc3ccccn23)=C1c1cn2c3c(cc(F)cc13)CN(C(=O)N1CCCCC1)CC2 the GI50 (SW-620 colon) was 14.2 µM, the TGI (SW-620 colon) was 45.8 µM and the GI50 (PC-3 prostate) was 4.17 µM. For the same compound, the TGI (PC-3 prostate) was 41.8 µM, the GI50 (CAKI-1 renal) was 1240 nM and the TGI (CAKI-1 renal) was greater than 37.7 µM. The GI50 (NCI-H226 lung) was 3.7 µM, the TGI (NCI-H226 lung) was 54.8 µM and the GI50 (HCT-15 colon) was 13.3 µM. The TGI (HCT-15 colon) was 66.9 µM, the GI50 (HOP-62 NSCLC) was 15 µM and the TGI (HOP-62 NSCLC) was 40.4 µM. It also gave a GI50 (M14 melanoma) of 13.7 µM, a TGI (M14 melanoma) of 36.6 µM and a GI50 (A498 renal) of 10.8 nM. It also gave a TGI (A498 renal) of 11.5 µM, a GI50 (ACHN renal) of 1370 nM and a TGI (ACHN renal) greater than 72.5 µM. The GI50 (SN12C renal) was 9.54 µM, the TGI (SN12C renal) was 54.6 µM and the GI50 (SK-MEL-2 melanoma) was 8.8 µM. The TGI (SK-MEL-2 melanoma) was 27.2 µM, the GI50 (COLO 205 colon) was 11.4 µM and the TGI (COLO 205 colon) was 36.9 µM. The GI50 (NCI-H23 lung) was 17.2 µM, the TGI (NCI-H23 lung) was 52.3 µM and the GI50 (A549 NSCLC) was 7.85 µM. It also gave a TGI (A549 NSCLC) of 71.5 µM, a GI50 (HCC-2998 colon) of 14.6 µM and a TGI (HCC-2998 colon) of 32.8 µM. The GI50 (BT-549 breast) was 14.7 µM, the TGI (BT-549 breast) was 45 µM and the GI50 (UO-31 renal) was 2540 nM. The TGI (UO-31 renal) was greater than 65.5 µM, the TGI (LOX IMVI melanoma) was 15.8 µM and the GI50 (U251 CNS) was 1890 nM. For the same compound, the TGI (U251 CNS) was 24.3 µM, the GI50 (MDA-MB-435) was 14.6 µM and the TGI (MDA-MB-435) was 40.3 µM. For the same compound, the GI50 (HOP-92 NSCLC) was 14.8 µM, the TGI (HOP-92 NSCLC) was 38.1 µM and the GI50 (HS 578T breast) was 11.5 nM. It also gave a TGI (HS 578T breast) of 60.9 µM, a GI50 (OVCAR-5 ovarian) of 23.5 µM and a TGI (OVCAR-5 ovarian) of 64.4 µM. It also gave a GI50 (SNB-19 CNS) of 22.8 µM, a TGI (SNB-19 CNS) greater than 87.5 µM and a GI50 (MDA-MB-231 breast) of 11.4 µM. The TGI (MDA-MB-231 breast) was 33.1 µM, the GI50 (HT29 colon) was 723 nM and the TGI (HT29 colon) was 20 µM. It also gave a GI50 (HCT-116 colon) of 3.35 µM, a TGI (HCT-116 colon) greater than 89.8 µM and a GI50 (SK-OV-3 ovarian) of 15.5 µM. The TGI (SK-OV-3 ovarian) was 71.9 µM, the GI50 (SF-268 CNS) was 13.4 µM and the TGI (SF-268 CNS) was 39.4 µM. It also gave a GI50 (NCI-H522 lung) of 13.9 µM, a TGI (NCI-H522 lung) of 40.1 µM and a GI50 (UACC-62 melanoma) of 7.72 µM. The TGI (UACC-62 melanoma) was 22.9 µM, the GI50 (OVCAR-4 ovarian) was 1500 nM and the TGI (OVCAR-4 ovarian) was greater than 63.4 µM. It also gave a GI50 (OVCAR-3 ovarian) of 11.8 µM, a TGI (OVCAR-3 ovarian) of 44 µM and a TGI (SNB-75 CNS) of 46.3 µM. The GI50 (MCF7 breast) was less than 10 nM, the TGI (MCF7 breast) was 21.1 µM and the GI50 (RXF 393 renal) was 22.4 nM. For the same compound, the TGI (RXF 393 renal) was 14.7 µM, the GI50 (NCI-H460 lung) was 2450 nM and the TGI (NCI-H460 lung) was 29.1 µM. It also gave a GI50 (T-47D breast) of 9.79 µM, a TGI (T-47D breast) greater than 69.2 µM and a GI50 (UACC-257 melanoma) of 18.1 µM. It also gave a TGI (UACC-257 melanoma) of 40.4 µM, a GI50 (IGROV1 ovarian) of 21 µM and a TGI (IGROV1 ovarian) greater than 80 µM. It also gave a GI50 (DU-145 prostate) of 12.7 µM, a TGI (DU-145 prostate) of 39.7 µM and a GI50 (CCRF-CEM leukemia) of 2690 nM. For the same compound, the TGI (CCRF-CEM leukemia) was 49.3 µM, the GI50 (HL-60(TB) leukemia) was 8.74 µM and the TGI (HL-60(TB) leukemia) was 44.3 µM. For the same compound, the GI50 (SF-295 CNS) was 142 nM, the TGI (SF-295 CNS) was 33.9 µM and the GI50 (MALME-3M melanoma) was 30.7 µM. For the same compound, the TGI (MALME-3M melanoma) was 60.8 µM, the GI50 (SK-MEL-5 melanoma) was 2810 nM and the TGI (SK-MEL-5 melanoma) was 16.8 µM. It also gave a GI50 (SK-MEL-28 melanoma) of 19.5 µM, a TGI (SK-MEL-28 melanoma) of 45 µM and a GI50 (NCI/ADR-RES ovarian) of 19.7 µM. For the same compound, the TGI (NCI/ADR-RES ovarian) was greater than 100 µM, the GI50 (KM12 colon) was 10.6 µM and the TGI (KM12 colon) was 25.4 µM. For the same compound, the GI50 (SR leukemia) was 1840 nM, the TGI (SR leukemia) was 29.1 µM and the GI50 (RPMI-8226 leukemia) was 15.9 µM. The TGI (RPMI-8226 leukemia) was 46.6 µM, the GI50 (K-562 leukemia) was 3.39 µM and the TGI (K-562 leukemia) was greater than 100 µM. For the same compound, the GI50 (OVCAR-8 ovarian) was 6.89 µM, the TGI (OVCAR-8 ovarian) was greater than 92.1 µM and the GI50 (TK-10 renal) was 41.6 nM. The TGI (TK-10 renal) was 23.8 µM, the GI50 (786-0 renal) was 3.05 µM and the TGI (786-0 renal) was greater than 59.4 µM. The GI50 (MOLT-4 leukemia) was 3.41 µM, the TGI (MOLT-4 leukemia) was greater than 81.4 µM and the GI50 (SF-539 CNS) was 2740 nM. The TGI (SF-539 CNS) was 24.4 µM.
